Here are results for 18 molecules from US9765092B2, “Tricyclic piperidine compounds” (ACTELION PHARMACEUTICALS LTD, priority 2013, dated 2017).

For this experiment, the target named is human TPH1 (Homo sapiens (Human), UniProt P17752). As to the kind of experiment: Biochemical in vitro assay using fluorescence readout (TPH1 inhibition).
[1] abbreviates: human TPH1, fluorescence readout.
Setting [2] is: full length human TPH1, 40 μM L-tryptophan, 15° C., 60 minutes, fluorescence at 540 nm, mean if determined several times.

In general, IC50 refers to the concentration that gives 50% inhibition.

human TPH1, sequence (P17752 whole entry): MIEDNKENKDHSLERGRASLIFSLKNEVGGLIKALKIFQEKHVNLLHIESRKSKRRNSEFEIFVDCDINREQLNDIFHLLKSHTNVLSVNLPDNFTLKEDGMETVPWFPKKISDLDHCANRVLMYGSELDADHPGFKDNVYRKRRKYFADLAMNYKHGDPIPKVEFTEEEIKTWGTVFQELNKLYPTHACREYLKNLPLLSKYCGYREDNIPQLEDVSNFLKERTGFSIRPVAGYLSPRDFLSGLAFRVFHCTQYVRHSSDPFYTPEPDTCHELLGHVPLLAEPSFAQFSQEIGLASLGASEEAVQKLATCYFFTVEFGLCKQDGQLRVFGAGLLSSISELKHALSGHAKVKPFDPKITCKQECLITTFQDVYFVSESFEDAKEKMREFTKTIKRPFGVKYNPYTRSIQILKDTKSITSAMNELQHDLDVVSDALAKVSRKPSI

As to `Cc1nn2c3c(nc2s1)CCN(C(=O)COc1ccc(C(=O)N(C)C)nc1Cl)C3c1cccc(Cl)c1F` (stereo not drawn) [Example 1.58.1, 6-chloro-5-(2-(5-(3-chloro-2-fluorophenyl)-2-methyl-7,8-dihydro-[1,3,4]thiadiazolo[2′,3′:2,3]imidazo[4,5-c]pyridin-6(5H)-yl)-2-oxoethoxy)-N,N-dimethylpicolinamide], inhibition under setting [1] was half-maximal at 0.042 µM (IC50).

In turn, `Cc1nn2c3c(nc2s1)CCN(C(=O)COc1ccc(N2CC(F)(F)C2)nc1Cl)C3c1ncc(C(=O)N(C)C)s1` (stereo not drawn) [Example 1.37.2, 2-(6-(2-((2-Chloro-6-(3,3-difluoroazetidin-1-yl)pyridin-3-yl)oxy)acetyl)-2-methyl-5,6,7,8-tetrahydro-[1,3,4]thiadiazolo[2′,3′:2,3]imidazo[4,5-c]pyridin-5-yl)-N,N-dimethylthiazole-5-carboxamide] registered an IC50 under setting [2] of 0.051 µM. As to `Cc1ccc(C2c3c(nc4sc(C(F)F)nn34)CCN2C(=O)COc2ccc(NS(C)(=O)=O)nc2Cl)c(F)c1` (stereo not drawn) [Example 8.2.1, N-(6-chloro-5-(2-(2-(difluoromethyl)-5-(2-fluoro-4-methylphenyl)-7,8-dihydro-[1,3,4]thiadiazolo[2′,3′:2,3]imidazo[4,5-c]pyridin-6(5H)-yl)-2-oxoethoxy)pyridin-2-yl)methanesulfonamide], the concentration for half-maximal inhibition (IC50) under setting [1] was 0.024 µM.

Under setting [1], `COC1(C)CN(c2ccc(OCC(=O)N3CCc4nc5sc(C)nn5c4[C@@H]3c3ncc(C)cc3F)c(Cl)n2)C1` [Example 1.31.11, (R)-2-((2-chloro-6-(3-methoxy-3-methylazetidin-1-yl)pyridin-3-yl)oxy)-1-(5-(3-fluoro-5-methylpyridin-2-yl)-2-methyl-7,8-dihydro-[1,3,4]thiadiazolo[2′,3′:2,3]imidazo[4,5-c]pyridin-6(5H)-yl)ethanone] showed an IC50 of 0.023 µM. Turning to `Cc1nn2c3c(nc2s1)CCN(C(=O)COc1ccc(N2CCOCC2)nc1Cl)C3c1ccc(CN(C)C)s1` (stereo not drawn) [Example 1.36.1, 2-((2-Chloro-6-morpholinopyridin-3-yl)oxy)-1-(5-(5-((dimethylamino)-methyl)thiophen-2-yl)-2-methyl-7,8-dihydro-[1,3,4]thiadiazolo[2′,3′:2,3]imidazo[4,5-c]pyridin-6(5H)-yl)-ethanone], under setting [2], half-maximal inhibition (IC50) required 0.384 µM. Same read-out and setting: the value for `Cc1nn2c3c(nc2s1)CCN(C(=O)COc1cccnc1Cl)C3c1cnc(N(C)C)s1` (stereo not drawn) [Example 1.22.7, 2-((2-Chloropyridin-3-yl)oxy)-1-(5-(2-(dimethylamino)thiazol-5-yl)-2-methyl-7,8-dihydro[1,3,4]thiadiazolo[2′,3′:2,3]imidazo[4,5-c]pyridin-6(5H)-yl)ethanone] was 0.081 µM. Turning to `Cc1nn2c3c(nc2s1)CCN(C(=O)COc1ccc(NS(C)(=O)=O)nc1Cl)C3c1ccc(Cl)cc1F` (stereo not drawn) [Example 1.4.39, N-(6-chloro-5-(2-(5-(4-chloro-2-fluorophenyl)-2-methyl-7,8-dihydro-[1,3,4]thiadiazolo[2′,3′:2,3]imidazo[4,5-c]pyridin-6(5H)-yl)-2-oxoethoxy)pyridin-2-yl)methanesulfonamide], 0.005 µM corresponded to half-maximal inhibition under setting [1] (IC50). That is a single-digit nanomolar value. On the same count and under the same terms, the value for `Cc1nc(C)c(C2c3c(nc4sc(C)nn34)CCN2C(=O)COc2ccc(N3CCOCC3)nc2Cl)o1` (stereo not drawn) [Example 1.66.1, 2-((2-chloro-6-morpholinopyridin-3-yl)oxy)-1-(5-(2,4-dimethyloxazol-5-yl)-2-methyl-7,8-dihydro-[1,3,4]thiadiazolo [2′,3′:2,3]imidazo[4,5-c]pyridin-6(5H)-yl)ethanone] was 0.013 µM; that for `O=C(COc1cccnc1Cl)N1CCc2nc3sccn3c2C1c1ccc(C(F)F)cc1F` (stereo not drawn) [Example 6.16.3, 2-((2-chloropyridin-3-yl)oxy)-1-(5-(4-(difluoromethyl)-2-fluorophenyl)-7,8-dihydrothiazolo[2′,3′:2,3]imidazo[4,5-c]pyridin-6(5H)-yl)ethanone] was 0.015 µM. The same measure, in the same setting: the value for `CS(=O)(=O)Nc1ccc(OCC(=O)N2CCc3nc4sccn4c3C2c2sccc2F)c(Cl)c1` (stereo not drawn) [Example 6.8.5, N-(3-chloro-4-(2-(5-(3-fluorothiophen-2-yl)-7,8-dihydro-thiazolo[2′,3′:2,3]imidazo[4,5-c]pyridin-6(5H)-yl)-2-oxoethoxy)phenyl)methanesulfonamide] was 0.009 µM. `Cc1cc(Cl)ccc1OCC(=O)N1CCc2nc3sccn3c2C1c1cc2cccnc2s1` (stereo not drawn) [Example 6.14.2, 2-(4-chloro-2-methylphenoxy)-1-(5-(thieno[2,3-b]-pyridin-2-yl)-7,8-dihydrothiazolo[2′,3′:2,3]imidazo[4,5-c]pyridin-6(5H)-yl)ethanone]: the IC50 under setting [1] stood at 0.039 µM. Consider `CNC(=O)c1ccc(C2c3c(nc4sc(C)nn34)CCN2C(=O)COc2ccc(N3CCOCC3)nc2Cl)o1` (stereo not drawn) [Example 1.42.2, 5-(6-(2-((2-chloro-6-morpholinopyridin-3-yl)oxy)acetyl)-2-methyl-5,6,7,8-tetrahydro-[1,3,4]thiadiazolo[2′,3′:2,3]imidazo[4,5-c]pyridin-5-yl)-N-methylfuran-2-carboxamide], for which, under setting [1], half-maximal inhibition (IC50) required 0.011 µM.

`CCc1nc(C(F)F)ccc1OCC(=O)N1CCc2nc3sc(C)nn3c2C1c1ccc(Cl)cc1F` (stereo not drawn) [Example 1.4.6, 1-(5-(4-chloro-2-fluorophenyl)-2-methyl-7,8-dihydro-[1,3,4]thiadiazolo[2′,3′:2,3]imidazo[4,5-c]pyridin-6(5H)-yl)-2-((6-(difluoromethyl)-2-ethylpyridin-3-yl)oxy)ethanone] registered an IC50 under setting [1] of 0.011 µM.

The molecule `Cc1nn2c3c(nc2s1)CCN(C(=O)COc1ccc(N2CCOCC2)nc1Cl)C3c1cc(C(C)(C)O)cs1` (stereo not drawn) [Example 1.20.1, 2-((2-chloro-6-morpholinopyridin-3-yl)oxy)-1-(5-(4-(2-hydroxypropan-2-yl)thiophen-2-yl)-2-methyl-7,8-dihydro-[1,3,4]thiadiazolo[2′,3′:2,3]imidazo[4,5-c]pyridin-6(5H)-yl)ethanone] gave a 50% inhibitory concentration (IC50) under setting [1] of 0.012 µM. Take `CCc1nc(C)ccc1OC1(C(=O)N2CCc3nc4sc(C)nn4c3C2c2ccc(C3CC3)cc2F)CC1` (stereo not drawn) [Example 1.6.18, (5-(4-cyclopropyl-2-fluorophenyl)-2-methyl-7,8-dihydro-[1,3,4]thiadiazolo[2′,3′:2,3]imidazo[4,5-c]pyridin-6(5H)-yl)(1-((2-ethyl-6-methylpyridin-3-yl)oxy)cyclopropyl)methanone]: the IC50 under setting [1] stood at 0.186 µM.

For the molecule `CCc1cc(F)ccc1OCC(=O)N1CCc2nc3sccn3c2C1c1ccc(OC)cc1F` (stereo not drawn) [Example 6.3.4, 2-(2-ethyl-4-fluorophenoxy)-1-(5-(2-fluoro-4-methoxyphenyl)-7,8-dihydrothiazolo[2′,3′:2,3]-imidazo[4,5-c]pyridin-6(5H)-yl)ethanone], under setting [1], the IC50 worked out at 0.008 µM. The same measure, in the same setting: to `CNc1ccc(OCC(=O)N2CCc3nc4sc(C)nn4c3C2c2ccc(Cl)nc2F)c(Cl)n1` (stereo not drawn) [Example 1.16.3, 1-(5-(6-chloro-2-fluoropyridin-3-yl)-2-methyl-7,8-dihydro-[1,3,4]thiadiazolo[2′,3′:2,3]imidazo[4,5-c]pyridin-6(5H)-yl)-2-((2-chloro-6-(methylamino)pyridin-3-yl)oxy)ethanone] belongs 0.008 µM.

On to `COC(=O)CCS(=O)(=O)c1ccc(OCC(=O)N2CCc3nc4sc(C)nn4c3C2c2ccc(Cl)cc2F)c(Cl)n1` (stereo not drawn) [Example 1.4.11, Methyl 3-((6-chloro-5-(2-(5-(4-chloro-2-fluorophenyl)-2-methyl-7,8-dihydro-[1,3,4]thiadiazolo[2′,3′:2,3]imidazo[4,5-c]pyridin-6(5H)-yl)-2-oxoethoxy)pyridin-2-yl)sulfonyl)propanoate], for which the half-inhibitory concentration (IC50) under setting [2] amounted to 0.057 µM.
